Source: article PMC3536977, “4,6-α-Glucanotransferase activity occurs more widespread in Lactobacillus strains and constitutes a separate GH70 subfamily” (Applied Microbiology and Biotechnology, 2012)

Biological target: T1, 4,6-αGT-ML4 (Limosilactobacillus reuteri, UniProt Q5SBN1)
T1 construct: full-length 180 kDa
Assay: 1H NMR / TLC / HPAEC of product mixture
Type: biochemical
Settings: sodium acetate 25 mM pH 4.7, 1 mM CaCl2, 37 °C, 40 h, 25 μg/ml enzyme

T1 sequence (Q5SBN1 entry or part of it): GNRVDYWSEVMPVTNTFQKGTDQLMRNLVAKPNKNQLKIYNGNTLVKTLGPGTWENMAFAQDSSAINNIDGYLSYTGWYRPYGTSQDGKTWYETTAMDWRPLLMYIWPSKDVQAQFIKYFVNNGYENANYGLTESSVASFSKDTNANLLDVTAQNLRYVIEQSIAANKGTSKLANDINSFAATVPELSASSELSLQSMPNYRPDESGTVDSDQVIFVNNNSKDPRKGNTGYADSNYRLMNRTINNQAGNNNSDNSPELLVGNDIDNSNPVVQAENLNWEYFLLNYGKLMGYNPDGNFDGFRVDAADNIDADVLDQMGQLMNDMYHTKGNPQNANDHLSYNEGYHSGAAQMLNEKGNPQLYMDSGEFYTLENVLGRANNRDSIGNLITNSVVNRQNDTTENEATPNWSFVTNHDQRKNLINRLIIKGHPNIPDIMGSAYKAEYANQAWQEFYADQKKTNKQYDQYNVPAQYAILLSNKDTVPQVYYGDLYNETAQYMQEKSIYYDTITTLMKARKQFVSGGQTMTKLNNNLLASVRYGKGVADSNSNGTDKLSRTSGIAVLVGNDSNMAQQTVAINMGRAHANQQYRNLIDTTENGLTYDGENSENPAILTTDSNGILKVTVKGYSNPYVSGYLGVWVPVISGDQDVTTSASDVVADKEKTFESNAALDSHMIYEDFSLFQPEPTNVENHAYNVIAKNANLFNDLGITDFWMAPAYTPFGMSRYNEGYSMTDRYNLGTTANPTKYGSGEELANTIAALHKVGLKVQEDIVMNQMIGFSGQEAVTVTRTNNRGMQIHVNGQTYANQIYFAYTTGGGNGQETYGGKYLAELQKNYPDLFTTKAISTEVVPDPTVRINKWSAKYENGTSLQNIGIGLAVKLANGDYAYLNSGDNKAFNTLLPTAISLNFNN

SMILES: OC[C@H]1O[C@H](O[C@H]2[C@H](O)[C@@H](O)[C@@H](O[C@H]3[C@H](O)[C@@H](O)[C@@H](O[C@H]4[C@H](O)[C@@H](O)[C@@H](O[C@H]5[C@H](O)[C@@H](O)[C@@H](O[C@H]6[C@H](O)[C@@H](O)C(O)O[C@@H]6CO)O[C@@H]5CO)O[C@@H]4CO)O[C@@H]3CO)O[C@@H]2CO)[C@H](O)[C@@H](O)[C@@H]1O (stereo partly shown) [DP6, maltohexaose]
- 1H NMR / TLC / HPAEC of product mixture: generated from maltohexaose, showing a linkage ratio
